Here are results for 12 compounds from publication PMC5869554 (CPT: Pharmacometrics & Systems Pharmacology, 2017).

The nature of series [1]: Solubility in phosphate buffer at pH 7.4. It counts as physicochemical.
Series [2] relates to forced expiratory volume in 1 second (FEV1). The series is described as follows: Clinical lung function. As to conditions: once daily dosing; glycopyrronium 25 µg, indacaterol 300 µg, batefenterol 800 µg; COPD patients. In kind it is in vivo, human.
In another series the test system is human bronchi. As to conditions: cited from earlier work.
The test system of another series is guinea pig trachea. Conditions: cited from earlier work.
The next series is described as follows: pKa determination. In kind it is physicochemical.
Series [3] is described as follows: LogD7.4, octanol/water partition coefficient. It counts as physicochemical. Conditions: for logD: pH 7.4; for LogD7.4: aqueous phase at pH7.4.
The conditions of series [4]: ref 8, 9; cited from earlier work.
[5] abbreviates: phosphate buffer, pH 7.4, aqueous buffer.
Setting [6] is: pKa, second printed value (dibase).

Usually solubility stands for how much of the substance goes into solution per volume. Low readings indicate a poorly soluble substance, high ones a readily soluble substance. As usually defined, the pKa is the negative logarithm of the acid dissociation constant. In general, logD refers to the decadic logarithm of the distribution of all forms, ionised or not, between an organic phase and buffer at a given pH. Higher therefore signals a more lipophilic compound.

≈ marks a conversion by molar mass, not a printed value. Read-outs that look alike come from different tables or passages of the source.

The compound `CCc1cc2c(cc1CC)CC(NC[C@H](O)c1ccc(O)c3[nH]c(=O)ccc13)C2` [Indacaterol] returned a solubility in series [1] (setting [5]) of 25 µM (≈ 9.81 µg/mL). Besides, the “associated increase in FEV1, single to multiple dosing” value (from here on “associated increase in FEV1, single”) in series [2] is reported as “around 40 mL”. Besides, the “In vitro human bronchi pIC50” value is listed as 6.6 with human bronchi (ref 22) and 7.4 with human bronchi (ref 24). The “In vitro guinea pig trachea pIC50” value in the series on guinea pig trachea (ref 19) is on record as 7.719. Moreover, the pKa in “pKa determination” (pKa) was 8.3. Moreover, the logD in series [3] came to 2.8.

The compound `OCc1cc(C(O)CNCCCCCCOCCCCc2ccccc2)ccc1O` (stereo not shown) [Salmeterol] had a solubility in series [1] (setting [5]) greater than 380 µM. Besides, the “In vitro human bronchi pIC50” value is on record as 7.3 with human bronchi (ref 21) and 8.1 in the series on human bronchi (ref 22). Besides, the pKa in the series “pKa determination” (pKa) is 9.1. Besides, the logD in series [3] turned out to be 2.2.

As to `CC(C)[N+]1(C)[C@@H]2CC[C@H]1C[C@@H](OC(=O)C(CO)c1ccccc1)C2` (stereo partly shown) [Ipratropium], the “In vitro human bronchi pIC50” value in the series on human bronchi (ref 25) is on record as 9.525. Moreover, the “In vitro guinea pig trachea pIC50” value with guinea pig trachea (ref 25) is on record as 8.625.

`CC(C)(C)NCC(O)c1cc(O)cc(O)c1` (stereo not shown) [Terbutaline]: the concentration in solution in series [1] (setting [5]) (solubility) came to 6830 µM (≈ 1540 µg/mL). Further, the pKa in “pKa determination” (pKa) amounted to 9.3. This compound displayed a pH-dependent lipophilicity (logD) in series [3] of -1.5.

Take `CCN(CC)CCN(CCNCCc1ccc(O)c2[nH]c(=O)sc12)C(=O)CCOCCc1cccc2ccccc12` [AZD3199]: the solubility in series [1] (phosphate buffer at pH 7.4) was 2,510 µM. In addition, the “In vitro guinea pig trachea pIC50” value in the series on guinea pig trachea (ref 19) is 8.019. Besides, the values for the pKa in “pKa determination” and in “pKa determination” (second printed value (dibase)) were 9.5 and 7.1, respectively. Also, in series [4], the lung half lives entry is given as “in the order of days”. In addition, the LogD7.4 in series [3] is listed as 2.3.

`CC(C)(C)NCC(O)c1ccc(O)c(CO)c1` (stereo not shown) [Salbutamol] yielded a solubility in series [1] (setting [5]) greater than 2900 µM. For the same compound, the figures for the “In vitro human bronchi pIC50” value in the series with human bronchi (ref 21) and with human bronchi (ref 22) were 6.4 and 6.9, respectively. In the series with guinea pig trachea (ref 19), the “In vitro guinea pig trachea pIC50” value is on record as 6.719. The compound further yielded a pKa in “pKa determination” (pKa) of 9.2.

`COc1ccc(CC(C)NCC(O)c2ccc(O)c(NC=O)c2)cc1` (stereo not shown) [Formoterol]: the “In vitro human bronchi pIC50” value with human bronchi (ref 23) is 8.8. Moreover, the “In vitro guinea pig trachea pIC50” value with guinea pig trachea (ref 19) is listed as 8.819.

In the case of `C[N+]1(C)CCC(OC(=O)C(O)(c2ccccc2)C2CCCC2)C1` (stereo not shown) [Glycopyrronium], in series [2], the “associated increase in FEV1, single” value is “around 40 mL”. Further, the entries for the “In vitro human bronchi pIC50” value in the series with human bronchi (ref 24) and in the series on human bronchi (ref 25) were 8.4 and 10.4, respectively. Further, the “In vitro guinea pig trachea pIC50” value in the series on guinea pig trachea (ref 25) is 9.025.

In series [1] (phosphate buffer at pH 7.4), `CC(C)c1ncc(C(=O)N2CCOC3(CCN(Cc4ccc(F)c(CCNC[C@H](O)c5ccc(O)c6[nH]c(=O)sc56)c4)CC3)C2)s1` [AZD2115] registered a solubility of 650 µM (≈ 435 µg/mL). Further, the pKa in “pKa determination” was found to be 8.7; in the series “pKa determination” (second printed value (dibase)), 7.6. The same compound returned a LogD7.4 in series [3] of 2.1.

`COc1cc(NC(=O)CCN2CCC(OC(=O)Nc3ccccc3-c3ccccc3)CC2)c(Cl)cc1CNC[C@H](O)c1ccc(O)c2[nH]c(=O)ccc12` [Batefenterol, (R)‐1‐(3‐((2‐chloro‐4‐(((2‐hydroxy‐2‐(8‐hydroxy‐2‐oxo‐1,2‐dihydroquinolin‐5‐yl)ethyl)amino)methyl)‐5‐methoxyphenyl)amino)‐3‐oxopropyl)piperidin‐4‐yl [1,1'‐biphenyl]‐2‐ylcarbamate] registered a solubility in series [1] (setting [5]) of 28 µM (≈ 20.7 µg/mL). Besides, the “associated increase in FEV1, single” value in series [2] was “around 100 mL”. Moreover, in the series with guinea pig trachea (ref 26), the “In vitro guinea pig trachea pIC50” value is 8.026. Further, the values for the pKa in the series “pKa determination” (pKa) and in “pKa determination” (setting [6]) were 10 and 7.3, respectively. The lung half lives entry in series [4] is on record as “in the order of days”. In series [3], this compound had a logD of 3.1.

The compound `CNC(=O)c1cc(Cl)c(OC(C)(C)C(=O)O)cc1OC[C@@H](O)CN1CCC2(CC1)Cc1cc(Cl)ccc1O2` [AZD4818] registered a solubility in series [1] (setting [5]) greater than 2500 µM. The results for the pKa in the series “pKa determination” (pKa) and in “pKa determination” (setting [6]) were 8.4 and 6.2, respectively. The same compound yielded a logD in series [3] of 0.9.

Take `C[N+]1(C)[C@@H]2C[C@@H](OC(=O)C(O)(c3cccs3)c3cccs3)C[C@H]1[C@@H]1O[C@@H]12` [Tiotropium]: in series [1] (setting [5]), the solubility is greater than 2800 µM. Also, in the series with human bronchi (ref 25), the “In vitro human bronchi pIC50” value is 9.525. In the series on guinea pig trachea (ref 25), the “In vitro guinea pig trachea pIC50” value is listed as 9.125.
